Measurements as given in patent US20230192617A1, “AZABICYCLIC(THIO)AMIDES AS FUNGICIDAL COMPOUNDS” (Bayer CropScience Aktiengesellschaft, priority 2020, published 2023).

Assays:
[1] = Measurement of Log P values by HPLC on reversed phase columns (EEC directive 79/831 Annex V.A8); assay type: physicochemical; conditions: method [a]: LC-UV, acidic range, 0.1% formic acid in water and acetonitrile as eluent; for chromatographic logP: reversed phase HPLC column
In short: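 Reversed-phase HPLC with UV detection per EEC 79/831 Annex V.A8, linear 10–95% acetonitrile gradient. Aqueous eluent: 0.1% formic acid (acidic), 0.001 M ammonium acetate (neutral), or 0.1% phosphoric acid (acidic); multiple values in one method joined by "+".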

Pyrenophora teres = assay: B-10. Pyrenophora teres in vitro cell test; assay type: cell-based; conditions: 144 h, 20 ppm of active ingredient, 6 days incubation, liquid culture, absorbance, read-out: efficacy (inhibition of fungal growth)
Procedure: (§1) B-10. Pyrenophora teres In Vitro Cell Test [table] Fungicides were solubilized in DMSO and the solution used to prepare the required range of concentrations. The final concentration of DMSO used in the assay was ≤1%. A spore suspension of P. teres was prepared and diluted to the desired spore density. Fungicides were evaluated for their ability to inhibit spore germination and mycelium growth in liquid culture assay. The compounds were added in the desired concentration to the culture medium with spores. After 6 days incubation, fungi-toxicity of compounds was determined by spectrometric measurement of mycelium growth. Inhibition of fungal growth was determined by comparing the absorbance values in wells containing the fungicides with the absorbance in control wells without fungicides.

Botrytis cinerea [2] = assay: B-11. Botrytis cinerea in vitro cell test; assay type: cell-based; conditions: 144 h, 20 ppm of active ingredient, 6 days incubation, liquid culture, absorbance, read-out: efficacy (inhibition of fungal growth)
Procedure: as §1, with “B-11. Botrytis cinerea” for “B-10. Pyrenophora teres”, “B. cinerea” for “P. teres”

Botrytis cinerea [3] = assay: In vivo preventive test on Botrytis cinerea (grey mould); conditions: 500 ppm of active ingredient, preventive spray on gherkin or cabbage, evaluated 4 to 5 days after inoculation, read-out: efficacy
Procedure: (§2) B-2. In Vivo Preventive Test on Botrytis cinerea (Grey Mould) [table] The active ingredients were made soluble and homogenized in a mixture of Dimethyl sulfoxide/Acetone/Tween® 80 and then diluted in water to the desired concentration. The young plants of gherkin or cabbage were treated by spraying the active ingredient prepared as described above. Control plants were treated only with an aqueous solution of Acetone/Dimethyl sulfoxide/Tween® 80. After 24 hours, the plants were contaminated by spraying the leaves with an aqueous suspension of Botrytis cinerea spores. The contaminated gherkin plants were incubated for 4 to 5 days at 17° C. and at 90% relative humidity. The contaminated cabbage plants were incubated for 4 to 5 days at 20° C. and at 100% relative humidity.

[4] = test system: Colletotrichum lindemuthianum; assay: B-8. Colletotrichum lindemuthianum in vitro cell test; assay type: cell-based; conditions: 144 h, 20 ppm of active ingredient, 6 days incubation, liquid culture, absorbance, read-out: efficacy (inhibition of fungal growth)
In short: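 Spore suspension of C. lindemuthianum in liquid medium exposed to DMSO-solubilized compounds (final DMSO ≤1%) for 6 days. Mycelial growth read by absorbance, with inhibition calculated relative to compound-free control wells.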

Alternaria brassicae = assay: In vivo preventive test on Alternaria brassicae (leaf spot on radish or cabbage); conditions: 500 ppm of active ingredient, preventive spray on radish or cabbage, evaluated 3 to 4 days after inoculation, read-out: efficacy
Procedure: B-1. In Vivo Preventive Test on Alternaria brassicae (Leaf Spot on Radish or Cabbage) [table] The active ingredients were made soluble and homogenized in a mixture of Dimethyl sulfoxide/Acetone/Tween® 80 and then diluted in water to the desired concentration. The young plants of radish or cabbage were treated by spraying the active ingredient prepared as described above. Control plants were treated only with an aqueous solution of Acetone/Dimethyl sulfoxide/Tween® 80. After 24 hours, the plants were contaminated by spraying the leaves with an aqueous suspension of Alternaria brassicae spores. The contaminated radish or cabbage plants were incubated for 3 to 4 days at 20° C. and at 100% relative humidity.

Sphaerotheca fuliginea = assay: In vivo preventive test on Sphaerotheca fuliginea (powdery mildew on cucurbits); conditions: Podosphaera fuliginea, 192 h; 500 ppm of active ingredient; preventive spray on gherkin; evaluated 8 days after inoculation; read-out: efficacy
Procedure: as §2, with “B-4. in vivo preventive test” for “B-2. In Vivo Preventive Test”, “Sphaerotheca fuliginea (powdery mildew on cucurbits)” for “Botrytis cinerea (Grey Mould)”, “gherkin” for “gherkin or cabbage”, “Sphaerotheca fuliginea” for “Botrytis cinerea”, “8” for “4 to 5 days at 17° C. and at 90% relative humidity. The contaminated cabbage plants were incubated for 4 to 5”, “70-80%” for “100%”

Alternaria alternata = Alternaria alternata in vitro cell test; assay type: cell-based; conditions: 120 h, 20 ppm of active ingredient, liquid culture, 5 days incubation, spectrometric measurement of mycelium growth, read-out: efficacy (inhibition of fungal growth)
Procedure: as §1, with “B-6. Alternaria alternata” for “B-10. Pyrenophora teres”, “A. alternata” for “P. teres”, “5” for “6”

SMILES | chromatographic logP [1] | inhibition at 20 ppm (Pyrenophora teres) [%] | inhibition at 20 ppm (Botrytis cinerea [2]) [%] | pest or weed control at 500 ppm (Botrytis cinerea [3]) [%] | inhibition at 20 ppm [4] [%] | pest or weed control at 500 ppm (Alternaria brassicae) [%] | LogP [1] | pest or weed control at 500 ppm (Sphaerotheca fuliginea) [%] | inhibition at 20 ppm (Alternaria alternata) [%]
C[C@@H]1CC[C@H](NC(=O)c2c(Oc3cccc(C(F)(F)F)c3)nnc3ccccc23)c2ccccc21 (mixture of isomers) [I-079] | 4.42 | 90 to 100 | 90 to 100 | 90 to 100 | 90 to 100 | 90 to 100 | – | – | –
COc1ccc2c(c1)[C@@H](NC(=O)c1c(Oc3cccc(C(F)(F)F)c3)nnc3ccccc13)[C@@H](OC)CC2 (mixture of isomers) [I-180] | 3.78 | 90 to 100 | 90 to 100 | 80 to 89 | 90 to 100 | 90 to 100 | 4.02 | – | –
C[C@H](NC(=O)c1c(Oc2cncc(C(F)(F)F)c2)nnc2ccccc12)c1cccc(C(F)(F)F)c1 (racemic) [I-028] | 3.57 | – | – | 90 to 100 | 80 to 89 | – | – | 90 to 100 | –
Cc1cccc2c1OCC[C@@H]2NC(=O)c1c(Oc2cccc(C(F)(F)F)c2)nnc2ccccc12 (racemic) [I-082] | 4.07 | 90 to 100 | 90 to 100 | 90 to 100 | 90 to 100 | 90 to 100 | – | – | 90 to 100
Cc1ccc2c(c1)[C@@H](NC(=O)c1c(Oc3cccc(C(F)(F)F)c3)nnc3ccccc13)COC2 (racemic) [I-083] | 3.73 | 90 to 100 | 90 to 100 | 90 to 100 | 90 to 100 | 90 to 100 | – | – | 80 to 89
Cc1ccc(C(F)(F)CNC(=O)c2c(Oc3cccc(C(F)(F)F)c3)cnc3ccccc23)c(C)c1 [I-039, N-[2-(2,4-dimethylphenyl)-2,2-difluoro-ethyl]-3-[3-(trifluoro-methyl)phenoxy]quinoline-4-carboxamide] | 4.46 | – | – | 90 to 100 | 90 to 100 | – | – | 90 to 100 | 90 to 100
Cc1ccc(C(F)(F)CNC(=O)c2c(Oc3cccc(C(F)(F)F)c3)nnc3cc(C)ccc23)c(C)c1 [I-044] | 4.45 | – | – | – | 90 to 100 | 90 to 100 | – | 80 to 89 | 90 to 100
Cn1cc(-c2ccc(C(F)(F)CNC(=O)c3c(Oc4cccc(C(F)(F)F)c4)nnc4ccccc34)c(Cl)c2)cn1 [I-065] | 3.71 | 90 to 100 | 90 to 100 | 90 to 100 | – | 90 to 100 | – | – | 70 to 79
CC(=O)c1ccc(C(F)(F)CNC(=O)c2c(Oc3cccc(C(F)(F)F)c3)nnc3ccccc23)c(Cl)c1 [I-069] | 3.84 | 90 to 100 | 90 to 100 | 90 to 100 | 70 to 79 | 90 to 100 | – | – | 80 to 89
COCc1ccc(C(F)(F)CNC(=O)c2c(Oc3cccc(C(F)(F)F)c3)nnc3ccccc23)c(Cl)c1 [I-074] | 4.12 | 90 to 100 | 90 to 100 | 90 to 100 | 90 to 100 | 90 to 100 | – | – | 90 to 100
